Entries after “also recorded” stand apart in the source; their conditions may differ.
Legend:
Type in all cases: cell-based, Medicago truncatula
MtIOMT6 [1] = experiment: RT-PCR analysis of elicitor-treated cell cultures: MtIOMT6
Protocol: (§1) Infection of M. truncatula with Phoma medicaginis was performed as described (Deavours and Dixon, 2005). RNA was extracted from plant tissues using TRI Reagent (Molecular Research Center, Inc., Cincinnati, Ohio) according to the manufacturer's instructions. For RT-PCR, 2 μg of total RNA was transcribed into cDNA using Ready-To-Go RT-PCR beads (Amersham, Piscataway, N.J.) and oligo-dT primer. Two μl of cDNA was used in each PCR reaction (50 μl total) with Ex-Taq PCR reagents (Takara Bio Inc., Shiga, Japan) and the primers used are listed in Table 1 (SEQ ID NOs:16-29). PCR conditions were 94° C., 5 min; 25-32 cycles of 94° C. for 1 min, 55° C. for 1 min, 72° C. for 1 min; followed by 72° C. for 10 min. PCR products were resolved on a 1% (w/v) TAE-agarose gel and visualized with ethidium bromide.
(§2) Differential induction of MtIOMTs in response to elicitation was also observed in M. truncatula cell cultures treated with yeast elicitor (YE) or methyl jasmonate (MeJA), which induce different global patterns of genetic re-programming (Suzuki et al., 2005). Changes in IOMT transcripts in elicited cells were inferred from microarray data generated utilizing Affymetrix Medicago genome arrays with 61K probe sets (www.affymetrix.com). […]

MtIOMT1 = experiment: Expression in elicitor-treated cell cultures: MtIOMT1 transcripts
From the text: (§3) The Affymetrix DNA chip contained 61,200 probe sets: 32,167 M. truncatula EST/mRNA-based and chloroplast gene-based probe sets (TIGR Gene Index version 8, January, 2005, 36,878 unique sequences); 18,733 M. truncatula IMGAG (International Medicago Genome Annotation Group) and phase 2/3 BAC prediction-based probe sets; 1,896 M. sativa EST/mRNA based probe sets; 8,305 Sinorhizobium meliloti gene prediction-based probe sets. For microarray experiments, total RNA was extracted from cell suspension cultures (Suzuki et al., 2005) using TRI Reagent (Molecular Research Center, Inc., Cincinnati, Ohio) and purified using the RNeasy® MinElute Cleanup Kit (Qiagen, Valencia, Calif.), according to the manufacturer's instructions. For all samples, 10 μg of total RNA was used for labeling reactions. Labeling, hybridization and data processing were performed according to the manufacturer's instruction (Affymetrix, Santa Clara, Calif.). For both YE and MeJA treatments, transcript profiles were examined at early (2 h) and late (24 h) time post-elicitation. For each sample point, two biological replicates were included, and the average signal intensities were used to calculate ratio of treatment to its corresponding control. […]

MtIOMT6 [2] = experiment: Microarray analysis of elicitor-treated cell suspension cultures: MtIOMT6 transcripts; conditions: 2 and 24 hours post-elicitation
From the text: as §3

MtIOMT4 = experiment: Microarray analysis of elicitor-treated cell suspension cultures: MtIOMT4 transcripts; conditions: 2 and 24 hours post-elicitation
From the text: as §3

MtIOMT2 = experiment: RT-PCR analysis of elicitor-treated cell cultures: MtIOMT2
Protocol: as §1, §2

MtIOMT7 = experiment: Microarray analysis of elicitor-treated cell suspension cultures: MtIOMT7 transcripts; conditions: 2 and 24 hours post-elicitation
From the text: as §3

IFS genes = experiment: Microarray analysis of elicitor-treated cell suspension cultures: IFS transcripts; conditions: MeJA: 24 h after treatment
From the text: The Affymetrix DNA chip contained 61,200 probe sets: 32,167 M. truncatula EST/mRNA-based and chloroplast gene-based probe sets (TIGR Gene Index version 8, January, 2005, 36,878 unique sequences); 18,733 M. truncatula IMGAG (International Medicago Genome Annotation Group) and phase 2/3 BAC prediction-based probe sets; 1,896 M. sativa EST/mRNA based probe sets; 8,305 Sinorhizobium meliloti gene prediction-based probe sets. For microarray experiments, total RNA was extracted from cell suspension cultures (Suzuki et al., 2005) using TRI Reagent (Molecular Research Center, Inc., Cincinnati, Ohio) and purified using the RNeasy® MinElute Cleanup Kit (Qiagen, Valencia, Calif.), according to the manufacturer's instructions. For all samples, 10 μg of total RNA was used for labeling reactions. Labeling, hybridization and data processing were performed according to the manufacturer's instruction (Affymetrix, Santa Clara, Calif.). For both YE and MeJA treatments, transcript profiles were examined at early (2 h) and late (24 h) time post-elicitation. For each sample point, two biological replicates were included, and the average signal intensities were used to calculate ratio of treatment to its corresponding control.
MtIOMTs 6-8 are annotated as encoding 2,7,4′-trihydroxyisoflavanone 4′-OMTs. […]

## CC/C=C\CC1C(=O)CCC1CC(=O)OC (stereo not shown) [MeJA, methyl jasmonate]
MtIOMT6 [1]
  Induction of MtIOMT6 transcripts: strong induction
MtIOMT1
  Induction of MtIOMT1 transcripts: induced
MtIOMT6 [2]
  Induction of MtIOMT6 transcripts, treatment vs control: massively induced; also recorded: very strongly induced
MtIOMT4
  Induction of MtIOMT4 transcripts, treatment vs control: down-regulated
MtIOMT2
  Induction of MtIOMT2 transcripts: strong induction
MtIOMT7
  Induction of MtIOMT7 transcripts, treatment vs control: massively induced; also recorded: very strongly induced
IFS genes
  Change of IFS gene transcripts, treatment vs control: down-regulated; also recorded: consistently reduced
